Reference: US5576303A, “Energy-supplementing saccharide source and its uses” (priority 1993, dated 1996)
Read-outs that look alike come from different tables or passages of the source. Values belong to the molecule of their own block, whether it stands above or below them.

How the values were obtained:
[1] = Digestion test in vitro (salivary amylase); format: in vitro ADME; settings: Table 4, salivary amylase, read-out: Decomposition rate
Experimental: (§1) By using a trehalose solution of a high-purity hydrous crystalline trehalose prepared by the method in Experiment 1-2, a digestion test of trehalose was carried out in vitro in accordance with the method as reported by K. Okada et al. in JOURNAL OF JAPANESE SOCIETY OF NUTRITION AND FOOD SCIENCE, Vol.43, No.1, pp.23-29 (1990). The digestibility of trehalose was evaluated based on the decomposition rate (%) calculated by the following equation: [formula]

Acute toxicity test = format: in vivo; settings: mouse, in vivo; oral, mice; "the value was not so accurate"
Experimental: (§2) By using mice, trehalose was tested for its acute toxicity by orally administering it to the mice a hydrous crystalline trehalose prepared by the method in Experiment 1-2. […] Based on the result, the LD50 was 50 g/kg or higher, though the value was not so accurate.

mice = assay: Acute toxicity test; format: in vivo; settings: oral
Experimental: as §2

rabbits [2] = settings: rabbit
Experimental: (§3) A hydrous crystalline trehalose prepared by the method in Experiment 1-2 was dissolved in a refined water, and the resultant solution was membrane filtered, concentrated and recrystallized to obtain a pyrogen-free hydrous crystalline trehalose. The crystal thus obtained was dissolved in injectable distilled water into a 10 w/v % solution isotonic to rabbit blood as trehalose infusion. By using 6 rabbits, about 2-3 kg weight, the infusion was rapidly administered to their ear veins at a dose of one g/kg body weight within 1.5 min, followed by collecting their blood at a prescribed time interval, and subjecting the collected blood samples to the measurements of their sugar levels (glucose concentration (mg/dl)) and insulin levels (μU/ml). As a control, 5 w/v % glucose solution isotonic to rabbit blood was similarly administered to rabbit veins at a dose of 0.5 g/kg body weight. Each result was expressed by the mean value of the 6 rabbits, and the time courses of the blood sugar- and insulin-levels of the rabbits were respectively shown in FIGS. 3 and 4. In the figures, the solid- and dashed-lines mean the time courses of trehalose and insulin in rabbit blood, respectively.

[3] = Digestion test in vitro (pancreatic amylase); format: in vitro ADME; settings: Table 4, pancreatic amylase, read-out: Decomposition rate
Experimental: as §1

living bodies = settings: prior art; cited from earlier work
[4] = Digestion test in vitro (gastric acid); format: in vitro ADME; settings: Table 4, gastric acid, read-out: Decomposition rate
Experimental: as §1

amylases = settings: Japanese Patent Laid-Open No. 240,758/88; cited from earlier work
[5] = Digestion test in vitro (enzyme derived from rat small intestinal mucous membrane); format: in vitro ADME; settings: small intestinal mucosa enzyme, Tables 4 and 5, rat small intestinal enzyme, read-out: Decomposition rate
Experimental: as §1
As evident from the results in Table 4, trehalose was not substantially hydrolyzed by the enzyme derived from rat small intestinal mucous membrane. By using the rat enzyme, disaccharides were tested for their digestibility similarly as above.

rabbits [6] = settings: rabbit; for amount secreted in urine (in words): in vivo
human volunteers = assay: Utilization test in vivo by oral administration (blood sugar and insulin levels)
Experimental: In accordance with the method reported by H. Atsuji et al. in Journal of Clinical Nutrition, Vol.41, No.2, pp.200-208 (1972), 30 g of a hydrous crystalline trehalose prepared by the method in Experiment 1-2 was dissolved in water into a 20 w/v % aqueous trehalose solution, and prescribed amounts of which were orally administered to 6 male volunteers, 26-31-year-old. The volunteers were let blood at a prescribed time interval, and each blood sample was measured its blood sugar level, i.e. glucose concentration (mg/dl) and insulin level (μU/ml). As a control, glucose was used. The results of both levels were the mean values of 6 volunteers. FIGS. 1 and 2 show the time courses of blood sugar- and insulin-levels, respectively. In the figures, the solid- and dashed-lines mean the time courses of trehalose and insulin, respectively.

[7] = Isotonicity to rabbit blood; format: physicochemical
Experimental: as §3

[8] = improper dose or route of administration; cited from earlier work
[9] = cited from earlier work
[10] = 20 w/v % aqueous solution, 6 male volunteers, mean

Structure (SMILES): OC[C@H]1O[C@H](O[C@H]2O[C@H](CO)[C@@H](O)[C@H](O)[C@H]2O)[C@H](O)[C@@H](O)[C@@H]1O [trehalose, O-α-D-glucopyranosyl α-D-glucopyranoside]
- metabolised [1]: 0%
- LD50 (Acute toxicity test): ≥ 50000 mg/kg
- toxicity (in words) (mice): relatively-low toxicity
- mortality (mice; highest possible dose): no mouse died
- hydrolysis, metabolism and utilization in vivo (rabbits [2]): readily hydrolyzed into glucose in vivo, metabolized and utilized by living bodies as energy source
- amount secreted in urine (in words) (rabbits [2]; in vivo): absolutely low
- dynamics of blood sugar- and insulin-levels against glucose (rabbits [2]; in vivo): tended to show a time lag
- metabolised [3]: 0%
- metabolism and utilization by living bodies (living bodies): not substantially assimilated and utilized by the body
- degraded [4]: 0%
- hydrolysis by amylases (amylases): not substantially hydrolyzed by amylases
- metabolised [5]: 1.3%
- hydrolysis, metabolism and utilization in vivo (rabbits [6]): readily hydrolyzed into glucose in vivo, metabolized and utilized by the living bodies as energy source
- amount secreted in urine (in words) (rabbits [6]): absolutely low
- assimilation, metabolism and utilization (human volunteers): readily assimilated, metabolized and utilized by living bodies as energy source
- time of maximum of blood sugar level after administration (human volunteers; [10]): 30 to 45 min
- time of maximum of insulin level after administration (human volunteers; [10]): 30 to 45 min
- dynamics of blood sugar- and insulin-levels against glucose (human volunteers; FIGS. 1 and 2): tended to show a time lag
- concentration isotonic to rabbit blood [7]: 10 w/v %

Structure (SMILES): OC[C@@H](O)[C@H](O)[C@@H](O)CO [xylitol]
- diarrhea [8]: may cause serious diarrhea

Structure (SMILES): O=C[C@H](O)[C@@H](O)[C@H](O)[C@H](O)CO [glucose, reference compound]
- amount secreted in urine (in words) (rabbits [2]; in vivo): absolutely low
- amount secreted in urine (in words) (rabbits [6]): absolutely low
- concentration isotonic to rabbit blood [7]: 5 w/v %

Structure (SMILES): OC[C@@H](O)[C@@H](O)[C@H](O)[C@@H](O)CO [sorbitol]
- diarrhea [8]: may cause serious diarrhea

Structure (SMILES): OC[C@@H](O)[C@@H](O[C@H]1O[C@H](CO)[C@@H](O)[C@H](O)[C@H]1O)[C@H](O)[C@@H](O)CO [maltitol]
- metabolism and utilization by living bodies (living bodies): not readily metabolized and utilized by living bodies

Structure (SMILES): OC[C@@H](O)[C@@H](O[C@@H]1O[C@H](CO)[C@H](O)[C@H](O)[C@H]1O)[C@H](O)[C@@H](O)CO [lactitol]
- metabolism and utilization by living bodies (living bodies): not readily metabolized and utilized by living bodies

More lines, main results first:

- metabolised [5]: 80.1%
Structure (SMILES): OC[C@H]1O[C@H](O[C@H]2[C@H](O)[C@@H](O)[C@H](O)O[C@@H]2CO)[C@H](O)[C@@H](O)[C@@H]1O (mixture of isomers) [Maltose]

- metabolised [5]: 9.7%
Structure (SMILES): OC[C@H]1O[C@@H](O[C@H]2[C@H](O)[C@@H](O)C(O)O[C@@H]2CO)[C@H](O)[C@@H](O)[C@H]1O (some centres unmarked) [Lactose]

- metabolised [5]: 25.1%
Structure (SMILES): OC[C@H]1O[C@@](CO)(O[C@H]2O[C@H](CO)[C@@H](O)[C@H](O)[C@H]2O)[C@@H](O)[C@@H]1O [Sucrose]
- hydrolysis under acidic conditions [9]: readily hydrolyzed

- metabolised [5]: 13.2%
Structure (SMILES): OC[C@H]1O[C@H](OC[C@H]2OC(O)[C@H](O)[C@@H](O)[C@@H]2O)[C@H](O)[C@@H](O)[C@@H]1O (some centres unmarked) [Isomaltose]

- metabolised [5]: 1.2%
Structure (SMILES): OC[C@H]1O[C@@H](O[C@H]2[C@H](O)[C@@H](O)C(O)O[C@@H]2CO)[C@H](O)[C@@H](O)[C@@H]1O (some centres unmarked) [Cellobiose]
